According to ChEMBL document CHEMBL1201862, “PubChem BioAssay data set” (2004):
Calls of active or inactive are those of the source.

Experiments:
[1] = test system: HeLa; assay: HeLa cell cytotoxicity, dose response, cytotoxicity control for MITF activator project, CellTiter-Glo luminescence, cherry-pick samples (AID 540259); format: functional, cell-based; settings: Homo sapiens
[2] = Luminescence Cell-Based Dose Retest to Confirm Inhibitors of Cancer Stem Cells. [Related pubchem assays (depositor defined):AID2717, AID2721]; format: functional; settings: Homo sapiens
[3] = target: T1, Microphthalmia-associated transcription factor (Homo sapiens, UniProt O75030); assay: TRPM1 promoter luciferase signal decrease, dose response, MITF inhibitor project, cell-based, SK-MEL-5, cherry-picked, set 3 (AID 493073); format: functional
T1 sequence (O75030 whole entry): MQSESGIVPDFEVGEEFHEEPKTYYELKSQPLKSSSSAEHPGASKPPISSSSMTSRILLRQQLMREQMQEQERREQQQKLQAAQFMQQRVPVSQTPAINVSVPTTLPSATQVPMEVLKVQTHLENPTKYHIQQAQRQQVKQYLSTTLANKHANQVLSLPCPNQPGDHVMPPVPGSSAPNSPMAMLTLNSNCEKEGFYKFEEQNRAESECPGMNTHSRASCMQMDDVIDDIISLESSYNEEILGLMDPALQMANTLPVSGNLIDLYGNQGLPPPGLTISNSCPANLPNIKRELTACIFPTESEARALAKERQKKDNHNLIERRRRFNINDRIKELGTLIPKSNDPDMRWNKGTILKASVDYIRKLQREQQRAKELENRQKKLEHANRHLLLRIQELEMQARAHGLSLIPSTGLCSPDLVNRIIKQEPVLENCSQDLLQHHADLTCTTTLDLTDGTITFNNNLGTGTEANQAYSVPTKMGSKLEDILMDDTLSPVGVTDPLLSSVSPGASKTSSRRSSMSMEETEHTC

[4] = test system: A-375; assay: A375 melanoma cell viability reduction, dose response, counter-screen for MITF modulator project, cherry-pick samples, set 2 (AID 540335); format: functional, cell-based; settings: Homo sapiens
[5] = target: Hepatocyte nuclear factor 4-alpha (Homo sapiens, UniProt P41235); format: functional, cell-based;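 also: biochemical luminescence-based dose-response counterscreen measuring inhibition of HNF4 dimerization, run alongside a screen for blockers of ABHD5–perilipin-5 interaction; split luciferase complementation of HNF4 fusion proteins in cell lysate measuring dimerization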
[6] = THP-1 cell cytotoxicity, dose response, cytotoxicity control for Vif-APOBEC3G degradation inhibitor project, THP-1 cells (AID 1117359); format: functional; settings: Human immunodeficiency virus 1, THP-1
[7] = test system: HEK293; assay: cells; settings: Homo sapiens
[8] = test system: HEK293; assay: cells; settings: Homo sapiens; remark: listed apart in the source
[9] = target: Beta-galactosidase (Escherichia coli, UniProt Q8VNN2); assay: PubChem AID 485352; format: functional
[10] = target: T2, Type-1 angiotensin II receptor (Homo sapiens, UniProt P30556); assay: AT1 receptor antagonists, dose response, selectivity assay for APJ receptor antagonist project, cell-based, uHTS hits (AID 463214); format: functional;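 also: antagonist potency against angiotensin II stimulated AT1 response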
T2 sequence (P30556 whole entry): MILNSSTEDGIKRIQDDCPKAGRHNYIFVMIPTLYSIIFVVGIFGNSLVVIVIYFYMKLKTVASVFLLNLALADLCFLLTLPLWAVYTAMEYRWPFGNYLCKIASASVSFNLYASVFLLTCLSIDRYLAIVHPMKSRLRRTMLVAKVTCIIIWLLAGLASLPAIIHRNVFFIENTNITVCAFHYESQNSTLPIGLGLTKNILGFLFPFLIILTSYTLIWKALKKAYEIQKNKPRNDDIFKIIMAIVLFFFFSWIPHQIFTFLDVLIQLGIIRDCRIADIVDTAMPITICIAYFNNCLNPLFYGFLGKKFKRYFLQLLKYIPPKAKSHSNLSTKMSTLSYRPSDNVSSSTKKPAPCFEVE

[11] = target: T3, Endoribonuclease toxin MazF (Escherichia coli K-12, UniProt P0AE70); assay: MazF toxin RNase activators, dose response, biochemical, fluorescence, single-stranded RNA substrate, uHTS hits (AID 588481); format: functional
T3 sequence (P0AE70 whole entry): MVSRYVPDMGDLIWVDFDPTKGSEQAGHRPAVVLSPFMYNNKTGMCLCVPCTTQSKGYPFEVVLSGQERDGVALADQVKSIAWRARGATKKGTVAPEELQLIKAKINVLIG

[12] = target: T3, Endoribonuclease toxin MazF; assay: fluorescent RNA oligo signal without MazF, dose response, counter-screen for MazEF activator project, biochemical, fluorescence, single-stranded RNase substrate (AID 588502); format: functional
[13] = target: T4, Caspase-3 (Homo sapiens, UniProt P42574); format: functional
T4 sequence (P42574 whole entry): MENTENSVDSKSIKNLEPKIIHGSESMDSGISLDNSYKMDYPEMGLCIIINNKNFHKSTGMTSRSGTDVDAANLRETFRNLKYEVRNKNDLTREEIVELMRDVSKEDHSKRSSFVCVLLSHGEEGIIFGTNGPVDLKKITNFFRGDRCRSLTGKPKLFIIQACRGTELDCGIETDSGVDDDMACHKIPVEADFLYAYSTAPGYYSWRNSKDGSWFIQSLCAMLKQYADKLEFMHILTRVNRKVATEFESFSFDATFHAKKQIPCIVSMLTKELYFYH

[14] = target: T5, Sentrin-specific protease 7 (Homo sapiens, UniProt Q9BQF6); format: functional;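 also: Luminescence-based dose-response confirmation of ultra-high-throughput screening hits, measuring inhibition of SENP7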
T5 sequence (Q9BQF6 whole entry): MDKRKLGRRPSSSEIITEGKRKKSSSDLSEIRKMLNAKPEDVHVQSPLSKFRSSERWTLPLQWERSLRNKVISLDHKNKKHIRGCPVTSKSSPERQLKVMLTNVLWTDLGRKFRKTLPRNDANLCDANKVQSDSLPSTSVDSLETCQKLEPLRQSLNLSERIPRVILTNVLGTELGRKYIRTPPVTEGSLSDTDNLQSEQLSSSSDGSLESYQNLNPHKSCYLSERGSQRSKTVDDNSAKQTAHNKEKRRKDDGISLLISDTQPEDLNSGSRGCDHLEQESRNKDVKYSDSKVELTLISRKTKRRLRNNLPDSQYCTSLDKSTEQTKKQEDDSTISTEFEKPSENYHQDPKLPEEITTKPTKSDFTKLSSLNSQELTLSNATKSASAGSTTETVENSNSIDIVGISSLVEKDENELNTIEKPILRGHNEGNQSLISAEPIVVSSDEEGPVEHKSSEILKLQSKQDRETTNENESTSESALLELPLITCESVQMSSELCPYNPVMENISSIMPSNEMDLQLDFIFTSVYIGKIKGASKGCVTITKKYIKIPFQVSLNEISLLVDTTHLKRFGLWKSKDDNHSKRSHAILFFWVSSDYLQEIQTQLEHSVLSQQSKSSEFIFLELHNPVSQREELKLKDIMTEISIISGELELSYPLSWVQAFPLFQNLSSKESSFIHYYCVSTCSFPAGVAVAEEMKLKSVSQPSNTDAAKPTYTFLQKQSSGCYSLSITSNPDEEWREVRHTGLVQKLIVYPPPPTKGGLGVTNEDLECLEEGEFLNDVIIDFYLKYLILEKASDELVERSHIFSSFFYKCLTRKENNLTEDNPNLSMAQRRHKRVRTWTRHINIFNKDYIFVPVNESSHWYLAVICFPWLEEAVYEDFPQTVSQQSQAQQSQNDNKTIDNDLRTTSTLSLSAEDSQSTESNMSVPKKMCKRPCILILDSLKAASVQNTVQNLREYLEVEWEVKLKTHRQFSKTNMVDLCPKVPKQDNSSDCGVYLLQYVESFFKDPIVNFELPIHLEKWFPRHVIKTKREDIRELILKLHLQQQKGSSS

[15] = target: T6, Sentrin-specific protease 6 (Homo sapiens, UniProt Q9GZR1); format: functional
T6 sequence (Q9GZR1 whole entry): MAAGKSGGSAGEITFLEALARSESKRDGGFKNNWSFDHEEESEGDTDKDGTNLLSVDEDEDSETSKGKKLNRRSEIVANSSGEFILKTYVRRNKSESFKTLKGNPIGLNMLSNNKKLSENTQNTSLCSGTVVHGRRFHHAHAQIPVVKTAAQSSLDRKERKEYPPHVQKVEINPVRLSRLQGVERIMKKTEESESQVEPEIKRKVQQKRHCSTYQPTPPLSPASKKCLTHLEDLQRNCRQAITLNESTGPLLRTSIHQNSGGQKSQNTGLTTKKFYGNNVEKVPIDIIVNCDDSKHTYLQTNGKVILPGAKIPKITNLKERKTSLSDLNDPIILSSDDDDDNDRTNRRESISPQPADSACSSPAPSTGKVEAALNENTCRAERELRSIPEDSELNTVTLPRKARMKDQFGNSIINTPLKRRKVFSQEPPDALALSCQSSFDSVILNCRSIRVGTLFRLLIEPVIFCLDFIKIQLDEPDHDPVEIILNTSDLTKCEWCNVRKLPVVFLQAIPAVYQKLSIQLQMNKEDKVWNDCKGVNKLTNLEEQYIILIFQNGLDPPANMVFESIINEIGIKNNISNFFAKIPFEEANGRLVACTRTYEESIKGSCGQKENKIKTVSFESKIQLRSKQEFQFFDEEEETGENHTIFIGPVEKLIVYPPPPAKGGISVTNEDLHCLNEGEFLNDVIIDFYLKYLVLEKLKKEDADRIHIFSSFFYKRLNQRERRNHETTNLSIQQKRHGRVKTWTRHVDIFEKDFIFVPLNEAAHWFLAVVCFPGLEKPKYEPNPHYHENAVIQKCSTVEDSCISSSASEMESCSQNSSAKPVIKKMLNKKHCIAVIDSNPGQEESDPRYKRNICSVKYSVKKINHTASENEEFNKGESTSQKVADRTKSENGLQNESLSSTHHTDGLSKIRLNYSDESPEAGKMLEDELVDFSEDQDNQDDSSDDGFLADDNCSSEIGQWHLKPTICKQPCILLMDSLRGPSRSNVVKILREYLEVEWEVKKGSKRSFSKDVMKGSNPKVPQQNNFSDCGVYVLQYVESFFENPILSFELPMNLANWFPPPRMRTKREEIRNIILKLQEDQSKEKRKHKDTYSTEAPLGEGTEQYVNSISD

[16] = target: T7, Sentrin-specific protease 8 (Homo sapiens, UniProt Q96LD8); format: functional;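 also: luminescence read-out of SENP8 inhibition, dose-response confirmation following an ultra-high-throughput screen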
T7 sequence (Q96LD8 whole entry): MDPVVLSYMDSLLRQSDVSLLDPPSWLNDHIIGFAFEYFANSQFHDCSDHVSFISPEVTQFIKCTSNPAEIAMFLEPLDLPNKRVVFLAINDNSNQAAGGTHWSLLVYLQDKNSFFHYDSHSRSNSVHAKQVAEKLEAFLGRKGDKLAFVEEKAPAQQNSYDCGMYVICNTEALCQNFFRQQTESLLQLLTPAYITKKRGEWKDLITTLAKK

[17] = target: T7, Sentrin-specific protease 8; assay: SENP8 protease inhibitors, SAR follow-up, biochemical, luminescence (AID 504501); format: functional
[18] = target: T4, Caspase-3; assay: SAR Analysis of small molecule inhibitors of Sentrin-specific proteases (SENPs) using a Caspase-3 Selectivity assay. [Related pubchem assays (depositor defined):AID2540, AID2599, AID434973, AID489001]; format: functional
[19] = target: T6, Sentrin-specific protease 6; assay: SAR Analysis of small molecule inhibitors of Sentrin-specific protease 6 (SENP6) using a Luminescent assay. [Related pubchem assays (depositor defined):AID2582, AID2599]; format: functional
[20] = target: T5, Sentrin-specific protease 7; assay: SENP7 protease inhibitors, SAR follow-up, biochemical, luminescence (AID 504497); format: functional
[21] = target: T8, Oxysterols receptor LXR-beta (Homo sapiens, UniProt P55055); format: functional, cell-based;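 also: agonist activity at LXR measured by a cell-based luminescence readout across a dose range, run as a counterscreen for daf-12 agonists; HEK293 cells with Gal4-LXR fusion and GAL4-driven luciferase reporter; potency for activation of Gal4-LXR reporter so compounds are agonists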
T8 sequence (P55055 whole entry): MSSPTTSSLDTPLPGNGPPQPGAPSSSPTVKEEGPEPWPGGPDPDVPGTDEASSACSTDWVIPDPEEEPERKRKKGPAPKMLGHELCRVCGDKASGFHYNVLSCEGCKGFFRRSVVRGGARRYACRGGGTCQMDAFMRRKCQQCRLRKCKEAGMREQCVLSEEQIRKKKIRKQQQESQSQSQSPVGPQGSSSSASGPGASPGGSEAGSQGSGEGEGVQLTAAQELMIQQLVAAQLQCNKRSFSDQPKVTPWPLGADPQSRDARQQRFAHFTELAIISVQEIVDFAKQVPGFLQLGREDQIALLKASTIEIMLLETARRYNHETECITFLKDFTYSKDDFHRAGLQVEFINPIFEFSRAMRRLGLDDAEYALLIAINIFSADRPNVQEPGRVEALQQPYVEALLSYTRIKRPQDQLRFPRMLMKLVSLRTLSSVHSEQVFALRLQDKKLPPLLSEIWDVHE

[22] = target: Ras and Rab interactor 1/Tyrosine-protein kinase ABL1 (Homo sapiens, UniProt P00519+Q13671); format: functional;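 also: biochemical TR-FRET dose-response test measuring inhibition of binding between Rin1 and Abl proteins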
[23] = target: Aurora kinase A (Homo sapiens, UniProt O14965); format: functional;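 also: value from the Navigating the Kinome kinase panel profiling, panel entry STK6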
[24] = target: Cyclin-dependent kinase 19 (Homo sapiens, UniProt Q9BWU1); assay: Navigating the Kinome. Panel member name: CDC2L6; format: functional
Cyclin-dependent kinase 19, sequence (Q9BWU1 whole entry): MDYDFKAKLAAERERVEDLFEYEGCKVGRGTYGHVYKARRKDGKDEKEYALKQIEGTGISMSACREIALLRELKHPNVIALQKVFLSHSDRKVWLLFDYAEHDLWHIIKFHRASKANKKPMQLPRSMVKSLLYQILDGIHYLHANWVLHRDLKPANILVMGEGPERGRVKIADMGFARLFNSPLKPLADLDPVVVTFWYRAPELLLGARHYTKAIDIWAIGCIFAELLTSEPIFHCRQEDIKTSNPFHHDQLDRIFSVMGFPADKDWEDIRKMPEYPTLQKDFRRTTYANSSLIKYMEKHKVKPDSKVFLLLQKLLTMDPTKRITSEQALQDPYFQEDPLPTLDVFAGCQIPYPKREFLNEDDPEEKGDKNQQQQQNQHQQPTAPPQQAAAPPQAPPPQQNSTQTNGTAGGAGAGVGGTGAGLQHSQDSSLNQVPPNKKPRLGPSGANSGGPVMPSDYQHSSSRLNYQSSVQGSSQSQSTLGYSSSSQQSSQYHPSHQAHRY

Ras and Rab interactor 1/Tyrosine-protein kinase ABL1, sequence (P00519 whole entry): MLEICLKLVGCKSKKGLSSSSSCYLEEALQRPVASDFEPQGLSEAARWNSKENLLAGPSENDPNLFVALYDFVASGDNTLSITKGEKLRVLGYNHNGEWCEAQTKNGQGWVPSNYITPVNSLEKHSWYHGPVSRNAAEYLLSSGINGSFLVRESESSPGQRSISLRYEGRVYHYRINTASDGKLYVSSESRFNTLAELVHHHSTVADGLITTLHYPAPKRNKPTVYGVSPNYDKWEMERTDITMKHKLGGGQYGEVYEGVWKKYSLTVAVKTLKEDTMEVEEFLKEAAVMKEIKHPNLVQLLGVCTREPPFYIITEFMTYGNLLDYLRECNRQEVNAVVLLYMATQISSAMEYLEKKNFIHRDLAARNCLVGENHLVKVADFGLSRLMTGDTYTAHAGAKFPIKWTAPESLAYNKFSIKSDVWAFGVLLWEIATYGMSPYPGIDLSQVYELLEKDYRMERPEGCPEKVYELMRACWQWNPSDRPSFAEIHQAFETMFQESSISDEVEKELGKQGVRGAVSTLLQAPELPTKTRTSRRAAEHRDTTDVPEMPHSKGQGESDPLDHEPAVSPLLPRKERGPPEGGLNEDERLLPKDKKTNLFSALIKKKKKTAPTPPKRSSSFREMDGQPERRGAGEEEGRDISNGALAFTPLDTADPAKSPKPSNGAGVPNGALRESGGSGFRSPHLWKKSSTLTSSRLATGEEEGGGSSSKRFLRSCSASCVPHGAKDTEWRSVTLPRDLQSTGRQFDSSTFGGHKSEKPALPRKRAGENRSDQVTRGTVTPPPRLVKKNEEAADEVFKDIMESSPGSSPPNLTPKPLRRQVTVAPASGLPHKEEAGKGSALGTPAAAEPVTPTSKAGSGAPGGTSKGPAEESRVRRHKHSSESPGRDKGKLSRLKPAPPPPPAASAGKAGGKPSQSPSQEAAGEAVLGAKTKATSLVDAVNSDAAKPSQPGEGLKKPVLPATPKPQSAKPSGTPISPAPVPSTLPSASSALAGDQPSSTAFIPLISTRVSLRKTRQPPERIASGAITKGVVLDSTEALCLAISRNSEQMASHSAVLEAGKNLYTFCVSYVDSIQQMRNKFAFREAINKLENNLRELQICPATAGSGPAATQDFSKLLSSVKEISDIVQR
Ras and Rab interactor 1/Tyrosine-protein kinase ABL1, sequence (Q13671 whole entry): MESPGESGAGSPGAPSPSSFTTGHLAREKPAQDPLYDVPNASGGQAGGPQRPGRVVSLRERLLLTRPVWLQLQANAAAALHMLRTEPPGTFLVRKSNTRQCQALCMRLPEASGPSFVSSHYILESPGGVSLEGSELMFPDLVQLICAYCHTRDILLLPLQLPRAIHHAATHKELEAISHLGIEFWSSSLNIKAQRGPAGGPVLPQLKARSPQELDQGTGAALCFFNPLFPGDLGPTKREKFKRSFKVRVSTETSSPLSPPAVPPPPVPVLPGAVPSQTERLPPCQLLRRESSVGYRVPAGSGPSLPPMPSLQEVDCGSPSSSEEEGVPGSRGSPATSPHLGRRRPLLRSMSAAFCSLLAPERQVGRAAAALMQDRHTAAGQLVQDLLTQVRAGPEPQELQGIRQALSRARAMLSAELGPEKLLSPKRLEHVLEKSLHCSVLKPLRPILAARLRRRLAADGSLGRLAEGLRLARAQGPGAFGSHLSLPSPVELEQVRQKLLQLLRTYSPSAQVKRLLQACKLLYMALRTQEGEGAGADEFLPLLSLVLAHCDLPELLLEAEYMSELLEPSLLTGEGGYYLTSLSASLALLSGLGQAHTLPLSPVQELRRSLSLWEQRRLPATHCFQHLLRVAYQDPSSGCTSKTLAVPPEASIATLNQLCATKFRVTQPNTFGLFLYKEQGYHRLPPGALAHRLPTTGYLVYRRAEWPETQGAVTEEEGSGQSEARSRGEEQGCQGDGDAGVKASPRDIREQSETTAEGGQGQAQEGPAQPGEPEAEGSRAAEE
Hepatocyte nuclear factor 4-alpha, sequence (P41235 whole entry, the tested form may be a part): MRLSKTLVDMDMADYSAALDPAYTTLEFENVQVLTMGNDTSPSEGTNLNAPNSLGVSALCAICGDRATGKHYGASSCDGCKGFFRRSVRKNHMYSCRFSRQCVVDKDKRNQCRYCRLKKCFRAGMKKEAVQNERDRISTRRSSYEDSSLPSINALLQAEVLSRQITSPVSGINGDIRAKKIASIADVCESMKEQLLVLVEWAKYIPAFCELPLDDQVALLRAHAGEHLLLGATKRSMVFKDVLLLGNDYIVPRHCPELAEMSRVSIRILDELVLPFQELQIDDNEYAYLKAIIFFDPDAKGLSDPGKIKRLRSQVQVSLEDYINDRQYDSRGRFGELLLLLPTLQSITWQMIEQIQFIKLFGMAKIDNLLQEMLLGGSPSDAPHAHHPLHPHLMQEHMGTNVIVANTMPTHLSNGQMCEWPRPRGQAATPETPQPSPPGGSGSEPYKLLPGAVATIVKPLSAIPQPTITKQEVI
Beta-galactosidase, sequence (Q8VNN2 whole entry): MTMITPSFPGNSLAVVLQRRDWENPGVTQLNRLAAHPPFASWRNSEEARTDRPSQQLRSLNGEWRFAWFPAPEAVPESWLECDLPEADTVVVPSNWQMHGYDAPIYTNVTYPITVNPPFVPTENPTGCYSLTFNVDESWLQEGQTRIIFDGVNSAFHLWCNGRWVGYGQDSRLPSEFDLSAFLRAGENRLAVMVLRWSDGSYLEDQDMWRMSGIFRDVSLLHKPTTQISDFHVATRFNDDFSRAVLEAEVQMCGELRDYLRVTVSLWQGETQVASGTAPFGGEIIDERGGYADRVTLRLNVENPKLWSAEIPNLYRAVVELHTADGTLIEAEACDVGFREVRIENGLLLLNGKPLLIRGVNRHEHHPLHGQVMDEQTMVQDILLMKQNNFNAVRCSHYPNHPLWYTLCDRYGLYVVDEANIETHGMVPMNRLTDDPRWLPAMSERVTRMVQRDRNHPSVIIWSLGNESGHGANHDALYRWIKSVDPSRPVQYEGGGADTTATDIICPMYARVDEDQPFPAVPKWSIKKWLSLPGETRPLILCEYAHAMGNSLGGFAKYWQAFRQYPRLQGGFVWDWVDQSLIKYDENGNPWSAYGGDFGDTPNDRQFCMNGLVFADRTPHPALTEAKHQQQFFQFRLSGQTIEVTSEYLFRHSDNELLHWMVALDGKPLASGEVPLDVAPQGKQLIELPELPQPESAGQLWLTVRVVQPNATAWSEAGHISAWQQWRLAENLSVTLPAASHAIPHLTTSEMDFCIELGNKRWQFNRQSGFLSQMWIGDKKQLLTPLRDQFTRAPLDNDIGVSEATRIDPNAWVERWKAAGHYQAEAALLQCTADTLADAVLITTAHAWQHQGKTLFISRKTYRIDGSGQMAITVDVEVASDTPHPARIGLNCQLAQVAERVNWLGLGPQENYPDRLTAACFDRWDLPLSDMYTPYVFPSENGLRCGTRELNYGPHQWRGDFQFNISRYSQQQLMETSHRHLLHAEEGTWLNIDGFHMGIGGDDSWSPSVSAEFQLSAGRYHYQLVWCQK
Aurora kinase A, sequence (O14965 whole entry): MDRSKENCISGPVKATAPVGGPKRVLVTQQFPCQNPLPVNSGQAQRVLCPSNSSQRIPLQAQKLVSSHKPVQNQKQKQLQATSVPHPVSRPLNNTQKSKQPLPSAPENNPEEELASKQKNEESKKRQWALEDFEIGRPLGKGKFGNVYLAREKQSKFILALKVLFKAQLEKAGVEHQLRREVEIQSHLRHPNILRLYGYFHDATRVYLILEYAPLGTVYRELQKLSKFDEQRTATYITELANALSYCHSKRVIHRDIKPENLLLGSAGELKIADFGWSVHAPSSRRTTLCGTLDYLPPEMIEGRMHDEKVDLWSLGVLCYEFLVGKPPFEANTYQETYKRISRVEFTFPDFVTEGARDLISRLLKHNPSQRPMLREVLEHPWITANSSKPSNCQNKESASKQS

For `Cc1ccsc1CCNC(=O)C1CCC(=O)N(CCc2cccc(F)c2)C1` (stereo not given), the AC50 [1] was 99.1 µM (active).

In the case of `O=C1NC(=O)N(Cc2ccccc2)C(=O)/C1=C\C=C\c1ccco1`, the AC50 [2] is reported as 1.48 µM (active), the AC50 [3] is reported as 6.29 µM (active) and the AC50 [4] is reported as 30.6 µM (active). The IC50 [5] was 1.59 µM (active), the CC50 [6] was > 40 µM (active) and the EC50 [7] was > 59.6 µM (inactive). The EC50 [8] was > 59.6 µM (inactive).

With `NC(S)=NN=C(S)Nc1ccccc1` the EC50 [9] was > 40 µM (inactive) and the IC50 [10] was > 40 µM (not active).

For `CC(C)(C)c1ccc(C(=O)CSc2nc3ccccc3c(=O)[nH]2)cc1`, the EC50 [11] was > 99 µM (inactive) and the EC50 [12] was > 99 µM (inactive).

In the case of `c1ccc(Nc2nc(-c3ccccc3)ns2)cc1`, the IC50 [13] is reported as 18.8 µM (active), the IC50 [14] is reported as 2.1 µM (active) and the IC50 [15] is reported as 2.19 µM (active). For the same compound, the IC50 [16] was 2.41 µM (active), the IC50 [17] was 2.5 µM (active) and the IC50 [18] was 7.8 µM (active). For the same compound, the IC50 [19] was 1.9 µM (active), the IC50 [20] was 1.7 µM (active) and the EC50 [21] was > 67.6 µM (inactive).

For `COc1cccc(NC(=O)C(=O)NCCC2CCCCN2S(=O)(=O)c2cccs2)c1` (stereo not given), the AC50 [1] was 239 µM (active).

With `CC(C)(C)OC(=O)N1CCC(C(=O)Nc2ccc(C(=O)N3CCCCC3)cc2)CC1` the IC50 [22] was 21.9 µM (inactive).

With `Cc1ccc(C)c(NC(=O)Nc2ccc(-c3c(C)sc4ncnc(N)c34)cc2)c1` the Ki [23] was 0.251 µM (active) and the Ki [24] was > 100 µM (inactive).
